Test results taken from patent USRE40086E1, “Method for treating bacterial infection with novel 7-substituted-9-substituted amino 6-demethyl-6-deoxytetracyclines” (Wyeth Holdings Corporation, priority 1991, dated 2008).

Tests used:
Assay type in all cases: cell-based
[1] = test system: E. coli UBMS 90-4 (tetM); experiment: MIC, agar dilution; conditions: E. coli UBMS 90-4 TetM; Table IA; unit assumed
[2] = test system: E. coli UBMS 88-1 (tetB); experiment: MIC, agar dilution; conditions: E. coli UBMS 88-1 TetB; Table IA; unit assumed
[3] = test system: S. aureus IVES 2943 (meth. resistant); experiment: MIC, agar dilution; conditions: S. aureus IVES 2943; Table IA; unit assumed
[4] = test system: E. coli J2175; experiment: MIC, agar dilution (Table IA); conditions: unit assumed
[5] = test system: S. mariescens FDOR 8733; experiment: MIC, agar dilution (Table IA); conditions: unit assumed
[6] = test system: S. aureus ROSE (MP); experiment: MIC, agar dilution (Table IA); conditions: unit assumed
[7] = test system: S. aureus NEMC 8769/89-4; experiment: MIC, agar dilution (Table IA); conditions: unit assumed
[8] = test system: E. coli J3272 Tet sens.; experiment: MIC, agar dilution (Table IA); conditions: unit assumed
[9] = test system: S. aureus UBMS 88-4 (Sensitive); experiment: MIC, agar dilution; conditions: S. aureus UBMS 88-4; Table IA; unit assumed
[10] = test system: E. coli PRP1 TetA; experiment: MIC, agar dilution (Table IA); conditions: unit assumed
[11] = test system: E. coli ATCC 25922; experiment: MIC, agar dilution; conditions: E. coli ATCC 25922; Table IA; unit assumed
[12] = test system: E. coli J3272 TetD; experiment: MIC, agar dilution (Table IA); conditions: unit assumed
[13] = test system: S. aureus IVES 1983 (meth. resistant); experiment: MIC, agar dilution; conditions: S. aureus IVES 1983; Table IA; unit assumed
[14] = test system: S. haemolyticus AVAH 88-3; experiment: MIC, agar dilution; conditions: S. hemolyticus AVHAH 88-3; Table IA; unit assumed
[15] = test system: S. aureus UBMS 90-3 (Sensitive); experiment: MIC, agar dilution; conditions: S. aureus UBMS 90-3; Table IA; unit assumed
[16] = test system: E. coli UBMS 89-1 (tetM); experiment: MIC, agar dilution; conditions: E. coli UBMS 89-1 TetM; Table IA; unit assumed
[17] = test system: S. aureus UBMS 88-5 (tetM); experiment: MIC, agar dilution; conditions: S. aureus UBMS 88-5 TetM; Table IA; unit assumed
[18] = test system: E. coli UBMS 90-5; experiment: MIC, agar dilution (Table IA); conditions: unit assumed
[19] = test system: E. faecalis 12201; experiment: MIC, agar dilution; conditions: Enterococcus 12201; Table IA; unit assumed
[20] = test system: S. aureus UBMS 88-7 (tetK); experiment: MIC, agar dilution; conditions: S. aureus UBMS 88-7 TetK; Table IA; unit assumed
[21] = test system: E. coli UBMS 89-2 (Sensitive); experiment: MIC, agar dilution; conditions: E. coli UBMS 89-2 Tet Sens.; Table IA; unit assumed
[22] = test system: E. coli J3272 TetC; experiment: MIC, agar dilution (Table IA); conditions: unit assumed
[23] = test system: X. maltophilia NEMC 87210; experiment: MIC, agar dilution (Table IA); conditions: unit assumed
[24] = test system: S. aureus ATCC 29213 (Sensitive); experiment: MIC, agar dilution; conditions: S. aureus ATCC 29213; Table IA; unit assumed
[25] = test system: Ps. acruginosa ATCC 27853; experiment: MIC, agar dilution (Table IA); conditions: unit assumed
[26] = test system: E. coli #311 (MP); experiment: MIC, agar dilution (Table IA); conditions: unit assumed
[27] = test system: E. coli MC4100 Tet sens.; experiment: MIC, agar dilution (Table IA); conditions: unit assumed
[28] = test system: S. aureus UBMS 90-1 (tetM); experiment: MIC, agar dilution; conditions: S. aureus UBMS 90-1 TetM; Table IA; unit assumed
[29] = test system: E. coli MC4100 TetB; experiment: MIC, agar dilution (Table IA); conditions: unit assumed
[30] = test system: S. aureus Smith (Sensitive); experiment: MIC, agar dilution; conditions: S. aureus SMITH (MP); Table IA; unit assumed
[31] = test system: E. coli BAJ9003; experiment: MIC, agar dilution (Table IA); conditions: unit assumed
[32] = test system: E. faecalis ATCC 29212; experiment: MIC, agar dilution; conditions: E. faecalis ATCC 29212; Table IA; unit assumed
[33] = test system: S. aureus UBMS 90-2 (tetM); experiment: MIC, agar dilution; conditions: S. aureus UBMS 90-2 TetM; Table IA; unit assumed

Row | SMILES | Antibacterial activity (MIC) [1] [µg/mL] | Antibacterial activity (MIC) [2] [µg/mL] | Antibacterial activity (MIC) [3] [µg/mL] | Antibacterial activity (MIC) [4] [µg/mL] | Antibacterial activity (MIC) [5] [µg/mL] | Antibacterial activity (MIC) [6] [µg/mL] | Antibacterial activity (MIC) [7] [µg/mL] | Antibacterial activity (MIC) [9] [µg/mL] | Antibacterial activity (MIC) [10] [µg/mL] | Antibacterial activity (MIC) [11] [µg/mL] | Antibacterial activity (MIC) [12] [µg/mL] | Antibacterial activity (MIC) [13] [µg/mL] | Antibacterial activity (MIC) [14] [µg/mL] | Antibacterial activity (MIC) [15] [µg/mL] | Antibacterial activity (MIC) [16] [µg/mL] | Antibacterial activity (MIC) [17] [µg/mL] | Antibacterial activity (MIC) [18] [µg/mL] | Antibacterial activity (MIC) [19] [µg/mL] | Antibacterial activity (MIC) [20] [µg/mL] | Antibacterial activity (MIC) [21] [µg/mL] | other results
1 | CN(C)c1cc(NC(=O)CNCC(=O)O)c(O)c2c1CC1CC3C(N(C)C)C(O)=C(C(N)=O)C(=O)C3(O)C(O)=C1C2=O (stereo not shown) [KKK] | > 32 | > 32 | > 32 | > 32 | > 32 | > 32 | 32 | 32 | > 32 | > 32 | > 32 | > 32 | > 32 | 16 | > 32 | > 32 | > 32 | > 32 | > 32 | > 32 | Antibacterial activity (MIC) [8]: > 32 µg/mL; Antibacterial activity (MIC) [22]: > 32 µg/mL; Antibacterial activity (MIC) [23]: > 32 µg/mL; Antibacterial activity (MIC) [24]: 32 µg/mL; Antibacterial activity (MIC) [25]: > 32 µg/mL; Antibacterial activity (MIC) [26]: > 32 µg/mL; Antibacterial activity (MIC) [27]: 32 µg/mL; Antibacterial activity (MIC) [28]: > 32 µg/mL; Antibacterial activity (MIC) [29]: > 32 µg/mL; Antibacterial activity (MIC) [30]: 16 µg/mL; Antibacterial activity (MIC) [31]: 16 µg/mL; Antibacterial activity (MIC) [32]: 16 µg/mL; Antibacterial activity (MIC) [33]: 32 µg/mL
2 | CN(C)CC(=O)Nc1cc(N(C)C)c2c(c1O)C(=O)C1=C(O)[C@]3(O)C(=O)C(C(=O)NCN4CCCCC4)=C(O)[C@@H](N(C)C)C3CC1C2 (stereo partly drawn) [HHH, [4S-(4alpha,12aalpha)]-4,7-Bis(dimethylamino)-9-([(dimethylamino)acetyl]amino]-1,4,4a,5,5a,6,11,12a-octahydro-3,10,12,12a-tetrahydroxy-1,11-dioxo-N-(1-piperadinylmethyl)-2-naphthacenecarboxamide] | 0.25 | 0.25 | 2 | 0.25 | 4 | 2 | 0.25 | 0.25 | 2 | 0.25 | 0.12 | 2 | 0.5 | 0.12 | 0.25 | 0.25 | 0.25 | 0.12 | 0.5 | 0.25 | Antibacterial activity (MIC) [22]: 0.5 µg/mL; Antibacterial activity (MIC) [23]: 0.5 µg/mL; Antibacterial activity (MIC) [24]: 0.25 µg/mL; Antibacterial activity (MIC) [25]: 8 µg/mL; Antibacterial activity (MIC) [26]: 0.25 µg/mL; Antibacterial activity (MIC) [27]: 0.12 µg/mL; Antibacterial activity (MIC) [28]: 0.25 µg/mL; Antibacterial activity (MIC) [29]: 0.25 µg/mL; Antibacterial activity (MIC) [30]: 0.12 µg/mL; Antibacterial activity (MIC) [31]: 0.03 µg/mL; Antibacterial activity (MIC) [32]: 0.06 µg/mL; Antibacterial activity (MIC) [33]: 0.12 µg/mL
3 | CN(C)CC(=O)Nc1cc(N(C)C)c2c(c1O)C(=O)C1=C(O)[C@]3(O)C(=O)C(C(=O)NCN4CCOCC4)=C(O)[C@@H](N(C)C)C3CC1C2 (stereo partly shown) [GGG] | 0.25 | 0.25 | 2 | 0.25 | 4 | 2 | 0.25 | 0.12 | 1 | 0.12 | 0.12 | 2 | 0.5 | 0.12 | 0.12 | 0.12 | 0.25 | 0.12 | 1 | 0.25 | Antibacterial activity (MIC) [22]: 1 µg/mL; Antibacterial activity (MIC) [23]: 0.5 µg/mL; Antibacterial activity (MIC) [24]: 0.25 µg/mL; Antibacterial activity (MIC) [25]: 8 µg/mL; Antibacterial activity (MIC) [26]: 0.25 µg/mL; Antibacterial activity (MIC) [27]: 0.06 µg/mL; Antibacterial activity (MIC) [28]: 0.25 µg/mL; Antibacterial activity (MIC) [29]: 0.25 µg/mL; Antibacterial activity (MIC) [30]: 0.12 µg/mL; Antibacterial activity (MIC) [31]: 0.03 µg/mL; Antibacterial activity (MIC) [32]: 0.06 µg/mL; Antibacterial activity (MIC) [33]: 0.12 µg/mL
